Laboratory results reported in patent US20250092065A1, “2-(INDAZOL-5-YL)-6-(PIPERIDIN-4-YL)-1,7-NAPHTHYRIDINE DERIVATIVES AND RELATED COMPOUNDS AS MODULATORS FOR SPLICING NUCLEIC ACIDS AND FOR THE TREATMENT OF PROLIFERATIVE DISEASES” (REMIX THERAPEUTICS INC., priority 2022, published 2025).
Like-named read-outs stand apart in the source and are kept apart here.

Key:
K562 cells = test: Cell Titer Glo 2.0 cell viability (toxicity) assay, K562; conditions: 500 cells/well, 72 hours
MYB = test: HiBiT protein abundance assay, MYB (K562 HiBiT knock-in); type: cell-based, human; conditions: HiBiT knock-in K562 cells, 24 hours, top dose 10 μM
Summary of the method: (§1)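 Steps: seed HiBiT knock-in K562 cells; add compound in 10-point 3-fold series from 10 μM final; incubate 24 h, 37 °C; add lytic HiBiT reagent, shake 5 min, wait 10 min; read luminescence. Normalize to parental K562 and DMSO controls, fit 4PL, take IC50.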

HTT mRNA = test: RT-qPCR splicing assay, HTT mRNA canonical (CJ) and alternative (AJ) junction; type: cell-based, human; conditions: Homo sapiens; for AC50: HTT alternative junction mRNA, read-out: HTT AJ (increase in AJ mRNA, AC50)
Summary of the method: (§2)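 A673 or K562 cells treated 24 h at 37 °C with 11-point 3-fold dilutions (top final 10 uM, DMSO ≤0.25%). Lysates analysed by one-step RT-qPCR for canonical (CJ) and alternative-exon (AJ) junctions, normalized to GAPDH, GUSB or PPIA. ΔΔCt vs DMSO, RQ = 2^(−ΔΔCt), expressed as percentage response.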

HTT = test: HiBiT protein abundance assay, HTT (K562 HiBiT knock-in); type: cell-based, human; conditions: HiBiT knock-in K562 cells, 24 hours, top dose 10 μM
Summary of the method: as §1

MYB mRNA = test: RT-qPCR splicing assay, MYB mRNA canonical (CJ) and alternative (AJ) junction; type: cell-based, human; conditions: Homo sapiens; for AC50: MYB alternative junction mRNA, read-out: MYB AJ (increase in AJ mRNA, AC50)
Summary of the method: as §2

[1] = HTT canonical junction mRNA, RT-qPCR, read-out: HTT CJ (decrease in CJ mRNA levels, IC50)
[2] = canonical junction qPCR panel, Table 4, read-out: HTT IC50 (decrease in CJ mRNA levels)
[3] = MYB canonical junction mRNA, RT-qPCR, read-out: MYB CJ (decrease in CJ mRNA levels, IC50)
[4] = canonical junction qPCR panel, Table 4, read-out: MYB IC50 (decrease in CJ mRNA levels)

SMILES | IC50 (MYB) [µM] | IC50 (HTT mRNA; [1]) [µM] | IC50 (HTT mRNA; [2]) [µM] | IC50 (HTT) [µM] | IC50 (MYB mRNA; [3]) [µM] | IC50 (MYB mRNA; [4]) [µM] | Effect of Exemplary Compounds on Cell Viability, K562 (K562 cells) | AC50 (HTT mRNA; RT-qPCR) [µM] | AC50 (MYB mRNA; RT-qPCR) [µM]
CC(C)(C)NC1CCN(c2ccc3nc(-c4cc5oc(C6CC6)nc5cc4O)ccc3n2)C1 (stereo not drawn) [Compound 333, 6-{6-[3-(tert-butylamino)pyrrolidin-1-yl]-1,5-naphthyridin-2-yl}-2-cyclopropyl-1,3-benzoxazol-5-ol] | 0.1 to 1 | 0.1 to 1 | 0.1 to 1 | 0.1 to 1 | 0.1 to 1 | 0.1 to 1 | B (B represents 100-1000 nM) | 0.1 to 1 | 0.1 to 1
COCc1nc2cc(O)c(-c3ccc4nc(N5CCC(NC(C)(C)C)C5)ccc4n3)cc2o1 (stereo not drawn) [Compound 334, 6-{6-[3-(tert-butylamino)pyrrolidin-1-yl]-1,5-naphthyridin-2-yl}-2-(methoxymethyl)-1,3-benzoxazol-5-ol] | 0.1 to 1 | 0.1 to 1 | 0.1 to 1 | 0.1 to 1 | 0.1 to 1 | 0.1 to 1 | B (B represents 100-1000 nM) | 0.1 to 1 | 0.1 to 1
COc1cc2nc(C3COC3)oc2cc1-c1ccc2nc(N3CCC(NC(C)(C)C)C3)ccc2n1 (stereo not drawn) [Compound 335] | 1 to 10 | 1 to 10 | 1 to 10 | 1 to 10 | 1 to 10 | 1 to 10 | C (C represents 1000-9999 nM) | 1 to 10 | 1 to 10
CC(C)(C)NC1CCN(c2ccc3nc(-c4cc5oc(CO)nc5cc4O)ccc3n2)C1 (stereo not drawn) [Compound 336, 6-{6-[3-(tert-butylamino)pyrrolidin-1-yl]-1,5-naphthyridin-2-yl}-2-(hydroxymethyl)-1,3-benzoxazol-5-ol] | < 0.1 | < 0.1 | < 0.1 | < 0.1 | 0.1 to 1 | 0.1 to 1 | A (A represents <100 nM) | 0.1 to 1 | 0.1 to 1
Cc1nc2cc(O)c(-c3ccc4nc(N5CCC(NC(C)(C)C)C5)ccc4n3)cc2n1C (stereo not drawn) [Compound 339, 6-{6-[3-(tert-butylamino)pyrrolidin-1-yl]-1,5-naphthyridin-2-yl}-1,2-dimethyl-1,3-benzodiazol-5-ol] | 0.1 to 1 | 0.1 to 1 | 0.1 to 1 | 0.1 to 1 | 0.1 to 1 | 0.1 to 1 | B (B represents 100-1000 nM) | 0.1 to 1 | 0.1 to 1
Cc1nc2cc(-c3ccc4nc(N5CCC(NC(C)(C)C)C5)ccc4n3)c(O)cc2n1C (stereo not drawn) [Compound 340, 6-{6-[3-(tert-butylamino)pyrrolidin-1-yl]-1,5-naphthyridin-2-yl}-2,3-dimethyl-1,3-benzodiazol-5-ol] | 0.1 to 1 | 0.1 to 1 | 0.1 to 1 | 0.1 to 1 | 0.1 to 1 | 0.1 to 1 | A (A represents <100 nM) | 0.1 to 1 | 0.1 to 1
Cc1cc2nc(-c3ccc4nc(N5CCC(NC(C)(C)C)C5)ccc4n3)cn2c(C)n1 (stereo not drawn) [Compound 344, N-tert-butyl-1-(6-{5,7-dimethylimidazo[1,2-c]pyrimidin-2-yl}-1,5-naphthyridin-2-yl)pyrrolidin-3-amine] | 1 to 10 | 1 to 10 | 1 to 10 | 1 to 10 | 1 to 10 | 1 to 10 | D (D represents greater than 10 μM in K562 cells) | 1 to 10 | 1 to 10
CCc1nc2cc(O)c(-c3ccc4nc(N5CCC(NC(C)(C)C)C5)ccc4n3)cc2o1 (stereo not drawn) [Compound 346, 6-{6-[3-(tert-butylamino)pyrrolidin-1-yl]-1,5-naphthyridin-2-yl}-2-ethyl-1,3-benzoxazol-5-ol] | 1 to 10 | 1 to 10 | 1 to 10 | 1 to 10 | 1 to 10 | 1 to 10 | C (C represents 1000-9999 nM) | 1 to 10 | 1 to 10
Cc1nc2cc(O)c(-c3ccc4nc(N5CC[C@H](N[C@H]6C[C@H](F)C6)C5)ccc4n3)cc2o1 [Compound 350, 2-methyl-6-{6-[(3S)-3-{[(1r,3r)-3-fluorocyclobutyl]amino}pyrrolidin-1-yl]-1,5-naphthyridin-2-yl}-1,3-benzoxazol-5-ol] | 0.1 to 1 | < 0.1 | < 0.1 | < 0.1 | 0.1 to 1 | 0.1 to 1 | B (B represents 100-1000 nM) | < 0.1 | 0.1 to 1

The next lines start with results.

IC50 (MYB) [µM] | IC50 (HTT mRNA; [1]) [µM] | IC50 (HTT mRNA; [2]) [µM] | IC50 (HTT) [µM] | IC50 (MYB mRNA; [3]) [µM] | IC50 (MYB mRNA; [4]) [µM] | SMILES | Effect of Exemplary Compounds on Cell Viability, K562 (K562 cells) | AC50 (HTT mRNA; RT-qPCR) [µM] | AC50 (MYB mRNA; RT-qPCR) [µM]
< 0.1 | 0.1 to 1 | 0.1 to 1 | 0.1 to 1 | < 0.1 | < 0.1 | CNC1CCN(c2ccc3nc(-c4cc5cn(C)nc5c(C)c4O)ncc3n2)C1 (stereo not drawn) [Compound 337, 2,7-dimethyl-5-{6-[3-(methylamino)pyrrolidin-1-yl]pyrido[3,2-d]pyrimidin-2-yl}indazol-6-ol] | A (A represents <100 nM) | 0.1 to 1 | < 0.1
< 0.1 | 0.1 to 1 | 0.1 to 1 | 0.1 to 1 | < 0.1 | < 0.1 | Cc1c(O)c(-c2ncc3nc(N4CCNCC4)ccc3n2)cc2cn(C)nc12 [Compound 338, 2,7-dimethyl-5-[6-(piperazin-1-yl)pyrido[3,2-d]pyrimidin-2-yl]indazol-6-ol] | B (B represents 100-1000 nM) | 1 to 10 | 0.1 to 1
0.1 to 1 | 0.1 to 1 | 0.1 to 1 | 0.1 to 1 | 0.1 to 1 | 0.1 to 1 | Cn1cc2cc(-c3ccc4nc(N5CCC(NC67CC(O)(C6)C7)C5)ccc4n3)c(O)cc2n1 (stereo not drawn) [Compound 341, 5-{6-[3-({3-hydroxybicyclo[1.1.1]pentan-1-yl}amino)pyrrolidin-1-yl]-1,5-naphthyridin-2-yl}-2-methylindazol-6-ol] | B (B represents 100-1000 nM) | 0.1 to 1 | 0.1 to 1
0.1 to 1 | 0.1 to 1 | 0.1 to 1 | 0.1 to 1 | 0.1 to 1 | 0.1 to 1 | Cc1c(O)c(-c2ncc3nc(N4CCC5(CCN5)C4)ccc3n2)cc2cn(C)nc12 (stereo not drawn) [Compound 342, 5-(6-{1,6-diazaspiro[3.4]octan-6-yl}pyrido[3,2-d]pyrimidin-2-yl)-2,7-dimethylindazol-6-ol] | B (B represents 100-1000 nM) | 0.1 to 1 | 0.1 to 1
